Our source for the EC50 values is patent US10806726B2, “Methods of using indazole-3-carb oxamides and their use as Wnt/B-catenin signaling pathway inhibitors” (Samumed, LLC, priority 2016, dated 2020).

pEC50: −log10 of the molar value. A value given as a limit tells only on which side of the number the result lay.

In experiment [1] the test system is Wnt-responsive promoter driving firefly luciferase in SW480 cells. Briefly: Wnt reporter (SP5 promoter-luciferase) screening assay in SW480 cells. The class given is cell-based. The following applies: Homo sapiens, 24-40 h, top concentration ten micromolar. The essentials: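 SW480 (APC-mutant colon) cells stably transduced with lentiviral SP5-promoter (eight TCF/LEF sites) firefly luciferase, ~10,000 cells/well. Signals normalized to DMSO controls for EC50 fitting.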

Experiment [2] deals with primary human mesenchymal stem cells (hMSCs). Briefly: Tenocyte differentiation screening in hMSCs (SCXA-positive cells, 4 days). The note with it: 96 h, fold change over DMSO. In kind it is cell-based. The essentials: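 Primary hMSCs at passage 3–6 were treated with compound, fixed and immunostained for SCXA, and SCXA-positive cells per well were counted by imaging. Counts were normalized to DMSO wells as fold change, averaged over triplicates, and EC50 was fitted, with high-dose values manually corrected for solubility.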

As usually defined, the pEC50 is −log10 of the EC50, conventionally taken in molar units. With `O=C(Nc1ccc(N2CCOCC2)nc1)c1n[nH]c2ccc(-c3cncc(CN4CCCCC4)c3)cc12` [compound 69, N-(6-Morpholinopyridin-3-yl)-5-(5-(piperidin-1-ylmethyl)pyridin-3-yl)-1H-indazole-3-carboxamide], the pEC50 in experiment [1] is 7.30; in experiment [2] it was 4.90.

`CN(C)CCN(C)c1ccc(NC(=O)c2n[nH]c3ccc(-c4cncc(CN5CCCCC5)c4)cc23)cn1` [compound 74, N-(6-((2-(Dimethylamino)ethyl)(methyl)amino)pyridin-3-yl)-5-(5-(piperidin-1-ylmethyl)pyridin-3-yl)-1H-indazole-3-carboxamide]: the pEC50 is 7.19 in experiment [1] and 4.99 in experiment [2].

In the case of `O=C(Nc1cccnc1)c1n[nH]c2ccc(-c3cccc(CN4CCCC4)c3)cc12` [compound 49, N-(Pyridin-3-yl)-5-(3-(pyrrolidin-1-ylmethyl)phenyl)-1H-indazole-3-carboxamide], the pEC50 in experiment [1] is 7.24; in experiment [2] it was less than 4.00.

For the molecule `O=C(Nc1ccc2c(c1)OCCO2)c1n[nH]c2ccc(-c3cncc(CN4CCCCC4)c3)cc12` [compound 79, N-(2,3-Dihydrobenzo[b][1,4]dioxin-6-yl)-5-(5-(piperidin-1-ylmethyl)pyridin-3-yl)-1H-indazole-3-carboxamide], the pEC50 in experiment [1] was 6.91; in experiment [2], less than 4.00.

For `C[C@@H]1CCC[C@H](C)N1Cc1cncc(-c2ccc3[nH]nc(C(=O)Nc4cccnc4)c3c2)c1` [compound 84, 5-(5-(((2R,6 S)-2,6-Dimethylpiperidin-1-yl)methyl)pyridin-3-yl)-N-(pyridin-3-yl)-1H-indazole-3-carboxamide], the pEC50 was 6.05 to 6.09 in experiment [1] and less than 4.00 in experiment [2].

Regarding `O=C(NC1CCOCC1)c1n[nH]c2ccc(-c3cncc(CN4CCCCC4)c3)cc12` [compound 163, 5-(5-(Piperidin-1-ylmethyl)pyridin-3-yl)-N-(tetrahydro-2H-pyran-4-yl)-1H-indazole-3-carboxamide], the figures for the pEC50 in experiment [1] and in experiment [2] were 4.81 and 5.29, respectively.

As for `O=C(Nc1ccc(C(F)(F)F)nc1)c1n[nH]c2ccc(-c3cncc(CN4CCCCC4)c3)cc12` [compound 63, 5-(5-(Piperidin-1-ylmethyl)pyridin-3-yl)-N-(6-(trifluoromethyl)pyridin-3-yl)-1H-indazole-3-carboxamide], the pEC50 in experiment [1] is 7.00; in experiment [2], 4.99.

On to `O=C(Nc1ccc(CN2CCCC2)nc1)c1n[nH]c2ccc(-c3cccnc3)cc12` [compound 8, 5-(Pyridin-3-yl)-N-(6-(pyrrolidin-1-ylmethyl)pyridin-3-yl)-1H-indazole-3-carboxamide], for which the values for the pEC50 in experiment [1] and in experiment [2] were 6.89 and 5.30, respectively.

For the molecule `CS(=O)(=O)c1ccc(NC(=O)c2n[nH]c3ccc(-c4cncc(CN5CCCCC5)c4)cc23)cn1` [compound 185, N-(6-(Methylsulfonyl)pyridin-3-yl)-5-(5-(piperidin-1-ylmethyl)pyridin-3-yl)-1H-indazole-3-carboxamide], the pEC50 is 7.57 in experiment [1] and 5.19 in experiment [2].

`O=C(Nc1cccnc1)c1n[nH]c2ccc(-c3cncc(CN4CCOCC4)c3)cc12` [compound 64, 5-(5-(Morpholinomethyl)pyridin-3-yl)-N-(pyridin-3-yl)-1H-indazole-3-carboxamide]: the figures for the pEC50 in experiment [1] and in experiment [2] were 8.22 and 5.12, respectively.

Take `O=C(Nc1cnccc1NC(=O)C1CC1)c1n[nH]c2ccc(-c3cccnc3)cc12` [compound 58, N-(4-(Cyclopropanecarboxamido)pyridin-3-yl)-5-(pyridin-3-yl)-1H-indazole-3-carboxamide]: the pEC50 is 7.15 in experiment [1] and less than 4.00 in experiment [2].

On to `O=C(Nc1cncc(Cc2ccccc2)c1)c1n[nH]c2ccc(-c3cncc(CN4CCCCC4)c3)cc12` [compound 80, N-(5-Benzylpyridin-3-yl)-5-(5-(piperidin-1-ylmethyl)pyridin-3-yl)-1H-indazole-3-carboxamide], for which the pEC50 in experiment [1] was 6.80; in experiment [2], less than 4.00.

Turning to `O=C(NC1CCCC1)c1ccc(NC(=O)c2n[nH]c3ccc(-c4cncc(CN5CCCCC5)c4)cc23)cn1` [compound 184, N-(6-(Cyclopentylcarbamoyl)pyridin-3-yl)-5-(5-(piperidin-1-ylmethyl)pyridin-3-yl)-1H-indazole-3-carboxamide], the pEC50 is 7.40 in experiment [1] and less than 4.00 in experiment [2].

Turning to `O=C(Nc1ccnnc1)c1n[nH]c2ccc(-c3cccnc3)cc12` [compound 14, N-(Pyridazin-4-yl)-5-(pyridin-3-yl)-1H-indazole-3-carboxamide], the pEC50 was 6.97 in experiment [1] and 4.30 in experiment [2].

Consider `CN1CCN(Cc2cncc(NC(=O)c3n[nH]c4ccc(-c5cncc(CN6CCCCC6)c5)cc34)c2)CC1` [compound 124, N-(5-((4-Methylpiperazin-1-yl)methyl)pyridin-3-yl)-5-(5-(piperidin-1-ylmethyl)pyridin-3-yl)-1H-indazole-3-carboxamide], for which the pEC50 in experiment [1] is 7.17; in experiment [2] it was less than 4.00.

Take `Nc1ncc(NC(=O)c2n[nH]c3ccc(-c4cncc(CN5CCCCC5)c4)cc23)cn1` [compound 176, N-(2-Aminopyrimidin-5-yl)-5-(5-(piperidin-1-ylmethyl)pyridin-3-yl)-1H-indazole-3-carboxamide]: the pEC50 in experiment [1] was 7.52; in experiment [2], 5.33.

In the case of `COc1ccc(-c2ccc3[nH]nc(C(=O)Nc4cccnc4)c3c2)cn1` [compound 54, 5-(6-Methoxypyridin-3-yl)-N-(pyridin-3-yl)-1H-indazole-3-carboxamide], the pEC50 in experiment [1] is 6.80; in experiment [2], less than 4.00.

Regarding `CN(C)Cc1cncc(NC(=O)c2n[nH]c3ccc(-c4cncc(CN5CCCC5)c4)cc23)c1` [compound 106, N-(5-((Dimethylamino)methyl)pyridin-3-yl)-5-(5-(pyrrolidin-1-ylmethyl)pyridin-3-yl)-1H-indazole-3-carboxamide], the figures for the pEC50 in experiment [1] and in experiment [2] were 7.48 and 5.26, respectively.

On to `O=C(NC1CCCCC1)c1cncc(-c2ccc3[nH]nc(C(=O)Nc4cccnc4)c3c2)c1` [compound 59, 5-(5-(Cyclohexylcarbamoyl)pyridin-3-yl)-N-(pyridin-3-yl)-1H-indazole-3-carboxamide], for which the pEC50 in experiment [1] was 5.51; in experiment [2], 4.84.
